Our source for the inhibition and IC50 values is patent US10940139B2, “Compounds that interact with the Ras superfamily for the treatment of cancers, inflammatory diseases, rasopathies, and fibrotic disease” (Shy Therapeutics LLC, priority 2017, dated 2021).

KRas G12D/Q61H double mutant, sequence (P01116-2 other isoform, or with tags, fused parts or gaps G12D/Q61H): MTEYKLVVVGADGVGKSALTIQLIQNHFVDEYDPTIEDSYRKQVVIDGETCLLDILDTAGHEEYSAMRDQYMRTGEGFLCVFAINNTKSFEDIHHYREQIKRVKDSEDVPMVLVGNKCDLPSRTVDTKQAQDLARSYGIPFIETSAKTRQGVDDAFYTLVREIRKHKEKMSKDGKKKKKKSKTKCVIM

One assay deals with KRas G12D/Q61H double mutant (Homo sapiens (Human), UniProt P01116, G12D/Q61H). The assay can be described thus: Ras GTP binding domain inhibition assay (labeled GTP). Particulars: 20 μM compound; KRas G12D/Q61H double mutant; read-out: % Inhibition at 20 μM of K-Ras mutant and wild-type protein, KRas G12D Q61H. In a few lines:
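His-tagged KRas protein (3-10 μg/ml) was captured overnight at 4° C on nickel-coated wells in 50 mM Tris pH 7.5, 1 mM MgCl2, 1 mM DTT. Bound labeled GTP was read by fluorescence after washing.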
With `CCC(C)c1ccc(S(=O)(=O)NC(c2ccccc2)c2ccccn2)cc1` (centres unmarked), the inhibition at 20 µM lay in the range of 25 to 50%.

`O=c1[nH]c(NCC(O)c2ccccc2)nc2ccccc12` (centres unmarked): the inhibition at 20 µM was 1 to 25%. Still for that read-out and setting: for `CCC(C)N(C(=O)CS(=O)(=O)c1nc(-c2ccccc2)cs1)C(C)CC` (centres unmarked) the value was 25 to 50%. Still for that read-out and setting: for `O=[N+]([O-])c1cc(C(F)(F)F)ccc1NCc1ccc2c(c1)OCCCO2` the value was 25 to 50%. Take `CCc1nc2ccc(C(=O)Nc3ccccc3C(=O)N3CC(C)OC(C)C3)cc2nc1CC` (centres unmarked): the inhibition at 20 µM fell in the range of 25 to 50%. Turning to `CCC(C)Oc1cc(-c2nc(C3CCCN3C(=O)OC(C)(C)C)no2)ccn1` (centres unmarked), the inhibition at 20 µM lay in the range of 25 to 50%. Regarding `CCOc1ccc(S(=O)(=O)N(CC(=O)N2CCCc3ccccc32)Cc2ccco2)cc1`, the inhibition at 20 µM was in the range of 25 to 50%. Same read-out and setting: as for `CCOc1ccc(CN(C)CC(=O)Nc2ccc3c(c2)c2ccccc2n3CC)cc1OC`, the figure is 25 to 50%; as for `CCN(C(=O)c1cnn(-c2ccccc2)n1)c1ccccc1`, 1 to 25%; as for `CCN(c1ncc(C(=O)OC)s1)S(=O)(=O)c1ccc(C)c(C)c1`, 51 to 75%.

Regarding `COC(=O)c1ccc(COC(=O)c2oc3ccccc3c2COC(C)C)o1`, the inhibition at 20 µM was in the range of 25 to 50%. On to `CN(Cc1ccccc1N1CCOCC1)C(=O)c1ccc(OCc2ccccc2)cc1`, for which the inhibition at 20 µM is 1 to 25%.

Consider `CC1CCC(NS(=O)(=O)CC(=O)N2CCCC2Cc2ccccc2Cl)CC1` (centres unmarked), for which the inhibition at 20 µM is 25 to 50%. On to `COc1ccc(CCNc2nc(-c3cc(C)n(-c4ncn[nH]4)c3C)cs2)cc1OC`, for which the inhibition at 20 µM fell in the range of 25 to 50%. Regarding `COc1ccc(Cl)cc1CN(c1ccccc1F)S(=O)(=O)C(C)C`, the inhibition at 20 µM lay in the range of 25 to 50%. Still for that read-out and setting: for `Cc1nc2ccccc2n1CCNC(=O)c1cc(S(=O)(=O)N(C)C)ccc1N1CCOCC1` the value was 1 to 25%; for `C=CCOc1ccc(C(=O)c2ccccc2)c(OCC(=O)NC2(C#N)CCCC2)c1`, 25 to 50%. With `CCC(C)Sc1ccc(NC(=O)c2ccccc2OCCOC)c(C(F)(F)F)c1` (centres unmarked), the inhibition at 20 µM lay in the range of 25 to 50%. Same read-out and setting: for `Cc1ccc(C)c(-c2csc(C3CN(Cc4ccccc4)CCO3)n2)c1` (centres unmarked) the value was 25 to 50%.

Still in this assay, the particulars now being: 20 μM compound; read-out: % Inhibition at 20 μM KRas G12D Q61H.
With `Cc1c(-c2ccccc2)sc2[nH]c(-c3ccccn3)nc(=O)c12`, the inhibition at 20 µM was 25 to 50%. As to `O=C(Nc1nc(-c2cccnc2)cs1)c1ccccn1`, the inhibition at 20 µM lay within 25 to 50%. Consider `O=C(Nc1nnc(-c2ccccn2)s1)c1nccc2ccccc12`, for which the inhibition at 20 µM is 1 to 25%. Turning to `Fc1ccccc1-c1csc(C2CN(Cc3ccccc3)CCO2)n1` (centres unmarked), the inhibition at 20 µM was in the range of 1 to 25%.

Regarding `COc1ccc(NC(=O)CN(C)Cc2coc(-c3cccs3)n2)cc1`, the inhibition at 20 µM was 25 to 50%. On to `CCOc1ccc(S(=O)(=O)N(CC(=O)N2CCc3ccccc32)Cc2ccco2)cc1`, for which the inhibition at 20 µM lay in the range of 25 to 50%. Same read-out and setting: for `Cc1cccc(C(=O)Nc2ccc(OS(=O)(=O)N3CCc4ccccc4C3)cc2)c1` the value was 25 to 50%; for `CC(C)Cc1csc2[nH]c(-c3ccccn3)nc(=O)c12`, 25 to 50%; for `Cc1nc(-c2ccccn2)[nH]c(=O)c1CC(=O)NC1CCCCCCC1`, 51 to 75%. The same measure, in the same setting: for `Cc1ccccc1CC(=O)Nc1nnc(-c2ccccn2)[nH]1` the value was 25 to 50%; for `Fc1ccc(OCc2nnc(SCCCc3ccccc3)o2)cc1`, 25 to 50%.

On to `COc1ccc(CN(Cc2cccs2)C(=O)c2oc3ccccc3c2C)cc1OC`, for which the inhibition at 20 µM fell in the range of 25 to 50%. Take `COc1ccc2c(c1)CCCN2C(=O)CN(Cc1ccco1)S(=O)(=O)c1ccc(C)cc1`: the inhibition at 20 µM was 25 to 50%. Still for that read-out and setting: as for `Cc1cc(C)n(CCCNC(=O)c2cc(S(=O)(=O)N3CCOCC3)ccc2N2CCCC2)n1`, the figure is 25 to 50%; as for `Cc1nc(CC(=O)Nc2nnc(-c3ccccn3)[nH]2)cs1`, 25 to 50%; as for `O=C(Nc1nnc(-c2ccccn2)[nH]1)C1CC(=O)N(C2CCCC2)C1` (centres unmarked), 25 to 50%. For `COc1ccnc(CN2CCOC(C)(c3ccccc3)C2)c1OC` (centres unmarked), the inhibition at 20 µM fell in the range of 25 to 50%. Turning to `COc1ccc(-c2csc(C3CC3)n2)cc1Cl`, the inhibition at 20 µM was in the range of 25 to 50%. For `CN(Cc1nnc(-c2ccccc2Cl)o1)Cc1ccccc1N1CCCC1`, the inhibition at 20 µM was 1 to 25%. `CC(=O)Nc1cccc(C(C)N(Cc2ccccc2)Cc2nc(-c3ccc(Cl)cc3)no2)c1` (centres unmarked): the inhibition at 20 µM was in the range of 1 to 25%. In the case of `O=C(CCCNc1ncccn1)Nc1nnc(-c2ccccn2)[nH]1`, the inhibition at 20 µM lay in the range of 25 to 50%. Turning to `O=C(NCCc1ccc(O)nc1)c1csc2nc(-c3ccccn3)nc(N3CCOCC3)c12` [drawing 2809], the inhibition at 20 µM is 1 to 25%. For the compound `O=C(c1cc(-c2ccccc2)on1)N(Cc1ccco1)C1CCCC1`, the inhibition at 20 µM was in the range of 25 to 50%. On to `O=C(CCNc1ncccn1)Nc1nnc(-c2ccccn2)[nH]1`, for which the inhibition at 20 µM fell in the range of 25 to 50%. For the compound `O=C(CCc1ccccc1F)Nc1nnc(-c2ccccn2)[nH]1`, the inhibition at 20 µM lay in the range of 25 to 50%. In the case of `O=c1[nH]c(-c2ncccn2)nc2cc(-c3cccc(Cl)c3)sc12`, the inhibition at 20 µM was 25 to 50%. Turning to `CCN(CCC(=O)OC)c1nc(-c2ccccn2)nc2c1CCC2`, the inhibition at 20 µM lay in the range of 25 to 50%.

On to `FC(F)(F)c1cccc(N2CCN(c3ncnc4sccc34)CC2)c1`, for which the inhibition at 20 µM lay in the range of 1 to 25%. On the same count and under the same terms, as for `O=C(NCCc1cccs1)c1cc(S(=O)(=O)N2CCCCC2)ccc1N1CCOCC1`, the figure is 1 to 25%; as for `CC(C)Cc1noc(CN(C)CC23CC4CC(CC(C4)C2)C3)n1`, 25 to 50%.

As for `Cc1noc(C)c1CN(C(=O)c1ccc(COc2ccc(F)cc2)o1)c1ccccc1`, the inhibition at 20 µM fell in the range of 25 to 50%.

For `O=C(c1ccccc1)N1CCCc2c(O)nc(-c3ccccn3)nc21`, the inhibition at 20 µM fell in the range of 25 to 50%.

Turning to `O=C(CSCc1ccccn1)Nc1nnc(-c2ccccn2)[nH]1`, the inhibition at 20 µM lay in the range of 25 to 50%. On the same count and under the same terms, as for `CN(Cc1ccccn1)Cc1nc2ccccc2n1C`, the figure is 25 to 50%.

The assay is the same for the next values; noted with them: 20 μM; read-out: KRas G12D Q61H % Inh.
For the compound `O=C(Nc1nnc(-c2ccccn2)[nH]1)c1cccc(N2CCCS2(=O)=O)c1` [drawing 2540], the inhibition at 20 µM was in the range of 51 to 75%. Regarding `CC1CCc2sc(C(=O)Nc3nnc(-c4ccccn4)[nH]3)cc2C1` (centres unmarked) [drawing 2531], the inhibition at 20 µM lay within 51 to 75%. On the same count and under the same terms, as for `Cc1cccc(C)c1OCCOC(=O)c1ccccc1SCCOc1c(C)cccc1C` [drawing 2636], the figure is 51 to 75%; as for `O=C(COCCOc1ccccc1)Nc1nnc(-c2ccccn2)[nH]1` [drawing 2564], 76 to 100%; as for `O=C(Nc1nc(-c2ccccn2)cs1)C1COc2ccccc2O1` (centres unmarked) [drawing 2566], 51 to 75%. Turning to `O=c1nc(-c2ccccn2)[nH]c2c1sc1ccccc12` [drawing 2592], the inhibition at 20 µM lay within 51 to 75%. Consider `CCN(CC)S(=O)(=O)c1cc(C)c(C)c(NC(=O)CCc2c(C)nc(-c3ccccn3)nc2O)c1` [drawing 2602], for which the inhibition at 20 µM is 51 to 75%.

In the case of `CCN(CC)C(=O)c1sc2[nH]c(-c3ccccn3)nc(=O)c2c1C` [drawing 2589], the inhibition at 20 µM lay in the range of 51 to 75%. Regarding `O=C(Nc1nnc(-c2ccccn2)[nH]1)c1ccc(NC(=O)c2ccccn2)cc1` [drawing 2528], the inhibition at 20 µM was 51 to 75%. As for `O=C(Nc1nnc(-c2ccccn2)[nH]1)C1CCN(C(=O)c2cccs2)CC1` [drawing 2556], the inhibition at 20 µM lay within 51 to 75%. Consider `O=C(Nc1nnc(-c2ccccn2)[nH]1)c1nc(N2CCOCC2)ncc1Cl` [drawing 2508], for which the inhibition at 20 µM is 51 to 75%.

Staying with this assay, now noted: read-out: KRas G12D Q61H IC50.
As for `O=c1nc(-c2ccccn2)[nH]c2c1sc1ccccc12` [drawing 2592], the IC50 lay in the range of 11 to 30 µM.

As a reminder, the IC50 is the concentration that inhibits the measured activity by half.
